Assay results taken from patent US8648105B2, “Diarylthiohydantoin compounds” (The Regents of the University of California, priority 2006, dated 2014).

How the values were obtained:
Type in all cases: cell-based
Parameters in all cases: Fold induction, AR response reporter
[1] = target: T1, AR (Homo sapiens, UniProt P10275); conditions: for PSA levels of LN-AR cells: 100, 200, 500, and 1000 nM, FIG. 20; for rank by relative PSA level, most active to least active: 500 nM
T1 sequence (P10275 1-920): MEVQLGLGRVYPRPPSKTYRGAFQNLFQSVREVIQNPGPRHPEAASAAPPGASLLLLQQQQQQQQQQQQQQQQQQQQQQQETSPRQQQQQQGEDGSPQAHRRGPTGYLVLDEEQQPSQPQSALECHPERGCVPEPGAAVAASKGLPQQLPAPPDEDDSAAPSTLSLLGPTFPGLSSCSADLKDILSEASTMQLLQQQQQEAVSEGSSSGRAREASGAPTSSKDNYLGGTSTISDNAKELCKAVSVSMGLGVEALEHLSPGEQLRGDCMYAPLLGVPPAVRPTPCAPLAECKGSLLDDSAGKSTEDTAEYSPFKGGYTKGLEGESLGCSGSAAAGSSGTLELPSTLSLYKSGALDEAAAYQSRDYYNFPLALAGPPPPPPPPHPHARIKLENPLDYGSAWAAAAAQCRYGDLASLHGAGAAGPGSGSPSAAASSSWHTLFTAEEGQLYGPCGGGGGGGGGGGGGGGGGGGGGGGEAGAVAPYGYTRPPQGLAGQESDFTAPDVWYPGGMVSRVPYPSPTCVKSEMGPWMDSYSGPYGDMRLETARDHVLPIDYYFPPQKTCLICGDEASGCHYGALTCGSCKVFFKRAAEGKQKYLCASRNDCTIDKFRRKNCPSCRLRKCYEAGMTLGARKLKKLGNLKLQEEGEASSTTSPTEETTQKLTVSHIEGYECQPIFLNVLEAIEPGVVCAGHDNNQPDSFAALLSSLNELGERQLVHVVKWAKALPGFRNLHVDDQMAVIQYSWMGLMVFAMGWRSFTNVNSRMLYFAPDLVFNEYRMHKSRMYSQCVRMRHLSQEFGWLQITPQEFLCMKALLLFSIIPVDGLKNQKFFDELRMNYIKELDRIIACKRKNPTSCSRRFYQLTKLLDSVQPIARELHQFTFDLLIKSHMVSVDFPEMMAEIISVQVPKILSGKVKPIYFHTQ
Protocol: It is well established that PSA levels are indicators of AR activities in prostate cancer. […] The LNCaP-AR cells are a line of lymph node carcinoma of prostate cells transduced with a plasmid that makes express androgen receptors. […] After four days incubation, secreted PSA levels were assayed using PSA ELISA kits (American Qualex, San Clemente, Calif.)

[2] = target: T1, AR; conditions: LN-AR, absence of R1881
Protocol: Activities of AR response reporter were measured.

[3] = target: T1, AR; conditions: for inhibitory activity on AR response reporter: hormone refractory LNCaP-AR; for luciferase activity in LNCaP-AR cells: 125 nM to 1000 nM; for luciferase activity in LNCaP-AR cells / rank by relative luciferase activity, most active to least active: FIG. 3; for rank by relative luciferase activity, most active to least active: 500 nM
Protocol: The compounds were subjected to tests using an artificial AR response reporter system in a hormone refractory prostate cancer cell line. […] After two days of incubation, reporter activities were assayed.

[4] = target: T1, AR; conditions: AR over expressed LNCaP, absence of R1881
[5] = LN/AR cell line, 125 nmol to 1000 nmol

With `N#Cc1ccc(N2C(=O)C3(CCC3)N(c3ccc(CCCC(N)=O)cc3)C2=S)cc1C(F)(F)F` [NC47, 4-{4-[7-(4-Cyano-3-trifluoromethylphenyl)-8-oxo-6-thioxo-5,7-diaza-spiro[3.4]oct-5-yl]-phenyl}-butyramide] the “PSA level (comparison)” value [1, 5] was “less than the PSA level upon exposure to NC42 and NC46”.
For `N#Cc1ccc(N2C(=O)C3(CCCC3)NC2=S)cc1C(F)(F)F` [NC28, 4-(4-oxo-2-thioxo-1,3-diazaspiro[4.4]non-3-yl)-2-trifluoromethylbenzonitrile, reference compound], the “agonistic activity on AR response reporter” value [2] was “strongly activated AR” and the “inhibitory activity on AR response reporter” value (from here on “inhibitory activity”) [3] was “no inhibitory activities”.
In the case of `CNC(=O)c1ccc(N2C(=S)N(c3ccc(C#N)c(C(F)(F)F)c3)C(=O)C23CCCC3)cc1F` [NC55, 4-(3-(4-Cyano-3-(trifluoromethyl)phenyl)-4-oxo-2-thioxo-1,3-diazaspiro[4.4]nonan-1-yl)-2-fluoro-N-methylbenzamide], the “PSA levels of LN-AR cells” value [1] was “PSA levels of LN-AR cells decreased”.
For `CN1C(=O)N(c2ccc(C#N)c(C(F)(F)F)c2)C(=O)C12CCCC2` [NC27, 4-(1-methyl-2,4-dioxo-1,3-diaza-spiro[4.4]non-3-yl)-2-trifluoromethylbenzonitrile, reference compound], the “agonistic activity on AR response reporter” value [2] was “strongly activated AR” and the “inhibitory activity” value [3] was “no inhibitory activities”.
For `CS(=O)(=O)c1ccc(N2C(=S)N(c3ccc(C#N)c(C(F)(F)F)c3)C(=O)C23CCC3)cc1` [NC66], the “luciferase activity in LNCaP-AR cells” value [3] was “acted to reduce luciferase activity” and the “rank by relative luciferase activity, most active to least active” value (shortened to “rank by relative luciferase activity”) [3] was “NC67>NC68>NC66>NC69>NC77=NC53>bicalutamide”.
In the case of `Cc1ccc(N2C(=S)N(c3ccc(C#N)c(C(F)(F)F)c3)C(=NC(=S)Nc3ccc(C#N)c(C(F)(F)F)c3)C23CCC3)cc1` [NC36, 1-(4-Cyano-3-trifluoromethyl-phenyl)-3-[7-(4-cyano-3-trifluoromethyl-phenyl)-6-thioxo-5-p-tolyl-5,7-diaza-spiro[3.4]oct-8-ylidene]-thiourea], the “agonistic activity on AR response reporter” value [2] was “no agonistic activity” and the “agonistic activity on secreted PSA” value [4] was “no agonistic activities”.
In the case of `N#Cc1ccc(N2C(=O)C3(CCC3)N(c3ccc(CCC(=O)NCCO)cc3)C2=S)cc1C(F)(F)F` [NC45, 3-{4-[7-(4-cyano-3-trifluoromethylphenyl)-8-oxo-6-thioxo-5,7-diaza-spiro[3.4]oct-5-yl]-phenyl}-N-(2-hydroxyethyl)-propionamide], the “decrease in PSA level of LNCaP-AR cells (comparison)” value (from here on “decrease in PSA level”) [1] was “greater decrease in PSA level than bicalutamide” and the “rank by relative PSA level, most active to least active” value (“rank by relative PSA level” below) [1] was “NC50>NC48>NC7>NC43>NC44>NC49>NC50>NC45>bicalutamide”.
For `N#Cc1ccc(N2C(=O)C3(CCC3)N(c3ccc(N4CCNCC4)cc3)C2=S)cc1C(F)(F)F` [NC49, 4-[8-Oxo-5-(4-piperazin-1-yl-phenyl)-6-thioxo-5,7-diazaspiro[3.4]oct-7-yl]-2-trifluoromethylbenzonitrile], the “decrease in PSA level” value [1] was “greater decrease in PSA level than bicalutamide” and the “rank by relative PSA level” value [1] was “NC50>NC48>NC7>NC43>NC44>NC49>NC50>NC45>bicalutamide”.
With `CN1C(=O)N(c2ccc(C#N)c(C(F)(F)F)c2)C(=O)C12CCC2` [NC25, 4-(5-methyl-6,8-dioxo-5,7-diazaspiro[3.4]oct-7-yl)-2-trifluoromethylbenzonitrile, reference compound] the “agonistic activity on AR response reporter” value [2] was “strongly activated AR”, the “inhibitory activity” value [3] was “no inhibitory activities” and the “agonistic activity on secreted PSA” value [4] was “stimulated PSA expression”.
`N#Cc1ccc(N2C(=O)C3(CCC3)N(c3ccc(CCC(N)=O)cc3)C2=S)cc1C(F)(F)F` [NC43, 3-{4-[7-(4-cyano-3-trifluoromethylphenyl)-8-oxo-6-thioxo-5,7-diaza-spiro[3.4]oct-5-yl]-phenyl}-propionamide] was tested, and the “decrease in PSA level” value [1] was “greater decrease in PSA level of LNCaP-AR cells than NC45 and NC49” and the “rank by relative PSA level” value [1] was “NC50>NC48>NC7>NC43>NC44>NC49>NC50>NC45>bicalutamide”.
`Cc1ccc(N2C(=S)N(c3ccc(C#N)c(C(F)(F)F)c3)C(=NC(=S)Nc3ccccc3)C23CCC3)cc1` [NC35, 1-[7-(4-cyano-3-trifluoromethyl-phenyl)-6-thioxo-5-p-tolyl-5,7-diaza-spiro[3.4]oct-8-ylidene]-3-phenyl-thiourea] was tested, and the “agonistic activity on AR response reporter” value [2] was “no agonistic activity” and the “agonistic activity on secreted PSA” value [4] was “no agonistic activities”.
In the case of `CN1C(=S)N(c2ccc(C#N)c(C(F)(F)F)c2)C(=O)C12CCCC2` [NC26, 4-(1-methyl-4-oxo-2-thioxo-1,3-diazaspiro[4.4]non-3-yl)-2-trifluoromethylbenzonitrile, reference compound], the “agonistic activity on AR response reporter” value [2] was “strongly activated AR”, the “inhibitory activity” value [3] was “no inhibitory activities” and the “agonistic activity on secreted PSA” value [4] was “stimulated PSA expression”.
With `CNC(=O)c1ccc(N2C(=S)N(c3ccc(C#N)c(C(F)(F)F)c3)C(=O)C2(C)C)cc1` [NC68] the “luciferase activity in LNCaP-AR cells” value [3] was “acted to reduce luciferase activity”, the “rank by relative luciferase activity” value [3] was “NC67>NC68>NC66>NC69>NC77=NC53>bicalutamide” and the “luciferase activity (comparison)” value [3, 5] was “less than the luciferase activity upon exposure to NC103”.
`CN(C)C(=O)CCCc1ccc(N2C(=S)N(c3ccc(C#N)c(C(F)(F)F)c3)C(=O)C23CCC3)cc1` [NC56, 4-(4-(7-(4-Cyano-3-(trifluoromethyl)phenyl)-8-oxo-6-thioxo-5,7-diazaspiro[3.4]octan-5-yl)phenyl)-N,N-dimethylbutanamide] was tested, and the “PSA levels of LN-AR cells” value [1] was “PSA levels of LN-AR cells decreased”.
`N#CCCCc1ccc(N2C(=S)N(c3ccc(C#N)c(C(F)(F)F)c3)C(=O)C23CCC3)cc1` [NC57, 4-(5-(4-(3-Cyanopropyl)phenyl)-8-oxo-6-thioxo-5,7-diazaspiro[3.4]octan-7-yl)-2-(trifluoromethyl)benzonitrile] was tested, and the “PSA levels of LN-AR cells” value [1] was “PSA levels of LN-AR cells decreased”.
With `COC(=O)c1ccc(N2C(=S)N(c3ccc(C#N)c(C(F)(F)F)c3)C(=O)C2(C)C)cc1` [NC67] the “luciferase activity in LNCaP-AR cells” value [3] was “acted to reduce luciferase activity” and the “rank by relative luciferase activity” value [3] was “NC67>NC68>NC66>NC69>NC77=NC53>bicalutamide”.
`CNC(=O)CCc1ccc(N2C(=S)N(c3ccc(C#N)c(C(F)(F)F)c3)C(=O)C23CCC3)cc1` [NC44, 3-{4-[7-(4-Cyano-3-trifluoromethylphenyl)-8-oxo-6-thioxo-5,7-diaza-spiro[3.4]oct-5-yl]-phenyl}-N-methyl-propionamide] was tested, and the “decrease in PSA level” value [1] was “greater decrease in PSA level of LNCaP-AR cells than NC45 and NC49” and the “rank by relative PSA level” value [1] was “NC50>NC48>NC7>NC43>NC44>NC49>NC50>NC45>bicalutamide”.
In the case of `N#Cc1ccc(N2C(=O)C3(CCC3)N(c3ccc(O)cc3F)C2=S)cc1C(F)(F)F` [NC69], the “luciferase activity in LNCaP-AR cells” value [3] was “acted to reduce luciferase activity” and the “rank by relative luciferase activity” value [3] was “NC67>NC68>NC66>NC69>NC77=NC53>bicalutamide”.
`CCNC(=S)N=C1N(c2ccc(C#N)c(C(F)(F)F)c2)C(=S)N(c2ccc(C)cc2)C1(C)C` [NC34, 1-[3-(4-cyano-3-trifluoromethyl-phenyl)-5,5-dimethyl-2-thioxo-1-p-tolyl-imidazolidin-4-ylidene]-3-ethyl-thiourea] was tested, and the “agonistic activity on AR response reporter” value [2] was “no agonistic activity” and the “agonistic activity on secreted PSA” value [4] was “no agonistic activities”.
For `CS(=O)(=O)N1CCN(c2ccc(N3C(=S)N(c4ccc(C#N)c(C(F)(F)F)c4)C(=O)C34CCC4)cc2)CC1` [NC50, 4-{5-[4-(4-methanesulfonylpiperazin-1-yl)-phenyl]-8-oxo-6-thioxo-5,7-diazaspiro[3.4]oct-7-yl}-2-trifluoromethylbenzonitrile], the “decrease in PSA level” value [1] was “greater decrease in PSA level of LNCaP-AR cells than NC45 and NC49” and the “rank by relative PSA level” value [1] was “NC50>NC48>NC7>NC43>NC44>NC49>NC50>NC45>bicalutamide”.
